Results reported in patent US10125134B2 (Mirati Therapeutics, Inc., priority 2016, dated 2018).
Read-outs that look alike come from different tables or passages of the source.

Key:
KRas G12C = KRas G12C (Homo sapiens, UniProt P01116, C118S/C51S/C80L/G12C); experiment: KRas G12C Modification Assay (LCMS detection of covalent adduct); assay type: binding; details: normalized percent of control; tested at 5 μM concentration for 3 hours
Summary of the method: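 Covalent modification was read by reverse-phase LC/MS of intact protein after compound exposure, each reaction stopped at its time point with 25 mM acetic acid. Unmodified-protein signal, taken as percent of total, was normalised to untreated protein and reported as POC.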

[1] = tested on: NCI-H358 cells (express KRas G12C), Phospho-ERK; experiment: Cellular inhibition of KRas G12C: Phospho-ERK in NCI-H358 cells; assay type: cell-based; details: pERK(Thr202/Tyr204) normalized with GAPDH, NCI-H358 cells, 3 hours, read-out: IC50
Summary of the method: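 IC50 derived by 4-parameter fit of GAPDH-normalized pERK(Thr202/Tyr204) signal, as percent of DMSO control. Signal came from in-cell immunodetection with infrared secondaries after 3 h compound exposure of KRas G12C NCI-H358 cells at 0.5% DMSO.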

Compound | POC (KRas G12C) | IC50 ([1]; Homo sapiens, NCI-H358, 3 h) [nM] | IC50 ([1]; Homo sapiens) [nM] | IC50 [1] [nM]
C=CC(=O)N1CCN(c2nc(OC[C@@H]3CCCN3C)nc3c2CCN(c2cccc4cccc(F)c24)C3)C[C@@H]1CC#N [Example 338, 2-((S)-1-acryloyl-4-(7-(8-fluoronaphthalen-1-yl)-2-(((S)-1-methylpyrrolidin-2-yl)methoxy)-5,6,7,8-tetrahydropyrido[3,4-d]pyrimidin-4-yl)piperazin-2-yl)acetonitrile] | C (“C”>50% POC) | 0.1 to 1000 | – | –
C=CC(=O)N1CCN(c2nc(OCCN3CCC(C)CC3)nc3c2CCN(c2cc(O)cc4ccccc24)C3)CC1 [Example 92, 1-(4-(7-(3-hydroxynaphthalen-1-yl)-2-(2-(4-methylpiperidin-1-yl)ethoxy)-5,6,7,8-tetrahydropyrido[3,4-d]pyrimidin-4-yl)piperazin-1-yl)prop-2-en-1-one] | C (“C”>50% POC) | 0.1 to 1000 | – | –
C=CC(=O)N1CCN(c2nc(O[C@H](C)CN(C)C)nc3c2CCN(c2c(C)ccc4[nH]ncc24)C3)CC1CC#N (stereo partly drawn) [Example 152, 2-[4-[2-[(1R)-2-(dimethylamino)-1-methyl-ethoxy]-7-(5-methyl-1H-indazol-4-yl)-6,8-dihydro-5H-pyrido[3,4-d]pyrimidin-4-yl]-1-prop-2-enoyl-piperazin-2-yl]acetonitrile] | C (“C”>50% POC) | – | 0.1 to 1000 | –
C=CC(=O)N1CCN(c2nc(OCCCN3C[C@@H]4C[C@H]3CO4)nc3c2CCN(c2c(C)ccc4[nH]ncc24)C3)CC1 [Example 181, 1-(4-(2-(3-((1 S,4S)-2-oxa-5-azabicyclo[2.2.1]heptan-5-yl)propoxy)-7-(5-methyl-1H-indazol-4-yl)-5,6,7,8-tetrahydropyrido[3,4-d]pyrimidin-4-yl)piperazin-1-yl)prop-2-en-1-one] | C (“C”>50% POC) | – | > 1000 | –
C=CC(=O)N1CCN(c2nc(OC[C@@H]3CCCN3CCOC)nc3c2CCN(c2cccc4ccccc24)C3)CC1CC#N (stereo partly drawn) [Example 266, 2-(1-acryloyl-4-(2-(((S)-1-(2-methoxyethyl)pyrrolidin-2-yl)methoxy)-7-(naphthalen-1-yl)-5,6,7,8-tetrahydropyrido[3,4-d]pyrimidin-4-yl)piperazin-2-yl)acetonitrile] | C (“C”>50% POC) | 0.1 to 1000 | – | –
C=CC(=O)N1CCN(c2nc(OCCCN3C[C@H]4C[C@@H]3CO4)nc3c2CCN(c2ccccc2C(F)(F)F)C3)CC1CC#N (stereo partly drawn) [Example 297, 2-[4-[2-[3-[(1R,4R)-2-oxa-5-azabicyclo[2.2.1]heptan-5-yl]propoxy]-7-[2-(trifluoromethyl)phenyl]-6,8-dihydro-5H-pyrido[3,4-d]pyrimidin-4-yl]-1-prop-2-enoyl-piperazin-2-yl]acetonitrile] | C (“C”>50% POC) | – | – | 0.1 to 1000
C=CC(=O)N1CCN(c2nc(OC[C@@H]3CCCN3C)nc3c2CCN(c2cccc(F)c2C)C3)CC1CC#N (stereo partly drawn) [Example 410, 2-(1-acryloyl-4-(7-(3-fluoro-2-methylphenyl)-2-(((S)-1-methylpyrrolidin-2-yl)methoxy)-5,6,7,8-tetrahydropyrido[3,4-d]pyrimidin-4-yl)piperazin-2-yl)acetonitrile] | C (“C”>50% POC) | 0.1 to 1000 | – | –
C=CC(=O)N1CCN(c2nc(OC[C@@H]3CCCN3C)nc3c2CCN(c2cccc4ccc(Cl)cc24)C3)CC1CC#N (stereo partly drawn) [Example 286, 2-(1-acryloyl-4-(7-(7-chloronaphthalen-1-yl)-2-(((S)-1-methylpyrrolidin-2-yl)methoxy)-5,6,7,8-tetrahydropyrido[3,4-d]pyrimidin-4-yl)piperazin-2-yl)acetonitrile] | C (“C”>50% POC) | – | – | 0.1 to 1000
C=CC(=O)N1CCN(c2nc(OCCO)nc3c2CCN(c2cc(O)cc4ccccc24)C3)CC1 [Example 142, 1-[4-[2-(2-hydroxyethoxy)-7-(3-hydroxy-1-naphthyl)-6,8-dihydro-5H-pyrido[3,4-d]pyrimidin-4-yl]piperazin-1-yl]prop-2-en-1-one] | C (“C”>50% POC) | > 1000 | – | –
C=CC(=O)N1CCN(c2nc(OC[C@@H]3CCCN3C)nc3c2CCN(c2cccc4c(F)cccc24)C3)CC1CC#N (stereo partly drawn) [Example 287, 2-[4-[7-(5-fluoro-1-naphthyl)-2-[[(2S)-1-methylpyrrolidin-2-yl]methoxy]-6,8-dihydro-5H-pyrido[3,4-d]pyrimidin-4-yl]-1-prop-2-enoyl-piperazin-2-yl]acetonitrile] | C (“C”>50% POC) | – | – | 0.1 to 1000
C=CC(=O)N1CCN(c2nc(OCCCN3CCOCC3)nc3c2CCN(c2cc(O)ccc2SC(F)(F)F)C3)CC1 [Example 214, 1-(4-(7-(5-hydroxy-2-((trifluoromethyl)thio)phenyl)-2-(3-morpholinopropoxy)-5,6,7,8-tetrahydropyrido[3,4-d]pyrimidin-4-yl)piperazin-1-yl)prop-2-en-1-one] | C (“C”>50% POC) | – | > 1000 | –
C=CC(=O)N1CCN(c2nc(OCCN3CCC(OC)CC3)nc3c2CCN(c2cc(O)cc4ccccc24)C3)CC1 [Example 108, 1-(4-(7-(3-hydroxynaphthalen-1-yl)-2-(2-(4-methoxypiperidin-1-yl)ethoxy)-5,6,7,8-tetrahydropyrido[3,4-d]pyrimidin-4-yl)piperazin-1-yl)prop-2-en-1-one] | C (“C”>50% POC) | 0.1 to 1000 | – | –
C=CC(=O)N1CCN(c2nc(OC[C@@H]3C[C@@H](F)CN3C)nc3c2CCN(c2cccc4ccccc24)C3)CC1CC#N (stereo partly drawn) [Example 220, 2-(1-acryloyl-4-(2-(((2 S,4R)-4-fluoro-1-methylpyrrolidin-2-yl)methoxy)-7-(naphthalen-1-yl)-5,6,7,8-tetrahydropyrido[3,4-d]pyrimidin-4-yl)piperazin-2-yl)acetonitrile] | C (“C”>50% POC) | – | 0.1 to 1000 | –
C=CC(=O)N1CCN(c2nc(OC[C@@H]3CCCN3C)nc3c2CCN(c2ccccc2C(C)C)C3)CC1 [Example 158, 1-[4-[7-(2-isopropylphenyl)-2-[[(2S)-1-methylpyrrolidin-2-yl]methoxy]-6,8-dihydro-5H-pyrido[3,4-d]pyrimidin-4-yl]piperazin-1-yl]prop-2-en-1-one] | C (“C”>50% POC) | – | > 1000 | –
C=CC(=O)N1CCN(c2nc(OCCCN3C[C@@H]4C[C@H]3CO4)nc3c2CCN(c2cccc4ccccc24)C3)CC1CC#N (stereo partly drawn) [Example 154, 2-[4-[7-(1-naphthyl)-2-[3-[(1S,4S)-2-oxa-5-azabicyclo[2.2.1]heptan-5-yl]propoxy]-6,8-dihydro-5H-pyrido[3,4-d]pyrimidin-4-yl]-1-prop-2-enoyl-piperazin-2-yl]acetonitrile] | C (“C”>50% POC) | 0.1 to 1000 | – | –
C=CC(=O)N1CCN(c2nc(OC[C@@H]3CCCN3C)nc3c2CCN(c2cccc4ncccc24)C3)CC1CC#N (stereo partly drawn) [Example 294, 2-[4-[2-[[(2S)-1-methylpyrrolidin-2-yl]methoxy]-7-(5-quinolyl)-6,8-dihydro-5H-pyrido[3,4-d]pyrimidin-4-yl]-1-prop-2-enoyl-piperazin-2-yl]acetonitrile] | C (“C”>50% POC) | – | – | > 1000
C=CC(=O)N1CCN(c2nc(OCCN(C)C)nc3c2CCN(c2cc(O)cc4ccccc24)C3)C(CCO)C1 (stereo not drawn) [Example 172, 1-(4-(2-(2-(dimethylamino)ethoxy)-7-(3-hydroxynaphthalen-1-yl)-5,6,7,8-tetrahydropyrido[3,4-d]pyrimidin-4-yl)-3-(2-hydroxyethyl)piperazin-1-yl)prop-2-en-1-one] | C (“C”>50% POC) | > 1000 | – | –
C=CC(=O)N1CCN(c2nc(OC[C@@H]3CCCN3C)nc3c2CCN(c2ccccc2F)C3)CC1CC#N (stereo partly drawn) [Example 227, 2-(1-acryloyl-4-(7-(2-fluorophenyl)-2-(((S)-1-methylpyrrolidin-2-yl)methoxy)-5,6,7,8-tetrahydropyrido[3,4-d]pyrimidin-4-yl)piperazin-2-yl)acetonitrile] | A (“A”≤25% POC) | 0.1 to 1000 | – | –
C[C@H](CN(C)C)Oc1nc2c(c(N3CCN(C(=O)/C=C/CN(C)C)CC3)n1)CCN(c1cc(O)cc3ccccc13)C2 [Example 122, (R,E)-4-(dimethylamino)-1-(4-(2-((1-(dimethylamino)propan-2-yl)oxy)-7-(3-hydroxynaphthalen-1-yl)-5,6,7,8-tetrahydropyrido[3,4-d]pyrimidin-4-yl)piperazin-1-yl)but-2-en-1-one bis-trifluoroacetate] | C (“C”>50% POC) | – | > 1000 | –
Cc1cccc(N2CCc3c(nc(OC[C@@H]4CCCN4C)nc3N3CCN(C(=O)/C=C/CN(C)C)[C@@H](CC#N)C3)C2)c1C [Example 403, 2-((S)-1-((E)-4-(dimethylamino)but-2-enoyl)-4-(7-(2,3-dimethylphenyl)-2-(((S)-1-methylpyrrolidin-2-yl)methoxy)-5,6,7,8-tetrahydropyrido[3,4-d]pyrimidin-4-yl)piperazin-2-yl)acetonitrile] | C (“C”>50% POC) | 0.1 to 1000 | – | –
C=CC(=O)N1CCN(c2nc(OCCN(C)C)nc3c2CCN(c2ccccc2C(F)(F)F)C3)CC1CC#N (stereo not drawn) [Example 279, 2-(1-acryloyl-4-(2-(2-(dimethylamino)ethoxy)-7-(2-(trifluoromethyl)phenyl)-5,6,7,8-tetrahydropyrido[3,4-d]pyrimidin-4-yl)piperazin-2-yl)acetonitrile] | C (“C”>50% POC) | 0.1 to 1000 | – | –
